Like-named read-outs stand apart in the source and are kept apart here.

Usually IC50 stands for the concentration needed to halve the response being measured.

For test [1], the target named is T1, acetylcholinesterase (AChE) (Homo sapiens, UniProt P22303).
T1 construct: purchased Sigma-Aldrich (Steinheim, Germany)
The test is described as follows: biochemical. The procedure: (§1) All chemicals and reagents employed in the study were obtained from Merck or Sigma-Aldrich (St. Louis, MO, USA) (Darmstadt, Germany). Acetylcholinesterase (E.C.3.1.1.7) and butyrylcholinesterase (E.C. 3.1.1.8) were procured from Sigma–Aldrich (Steinheim, Germany). The ^1H NMR and ^13C NMR spectra were recorded using a Bruker FT-NMR spectrometer operating at the digital frequencies of 600 and 150 MHz (Bioscience, Bruker, Billerica, MA, USA). Mass spectra were acquired utilizing a Shimadzu LCMS-IT-TOF system (Kyoto, Japan) employing the electrospray ionization (ESI) technique. The purity of synthesized derivatives was checked through thin-layer chromatography using silica gel 60 F254 (Merck, KGaA, Darmstadt, Germany).
(§2) The study was carried out following the guidelines outlined in our previously published study.

Test [2] deals with T2, butyrylcholinesterase (BuChE) (Homo sapiens, UniProt P06276).
T2 construct: purchased Sigma-Aldrich (Steinheim, Germany)
The test is described as follows: biochemical. The procedure: as §1, §2

The mark [3] stands for this setting: in vitro, value ± standard error mean, read-out: AChE Inhibition IC50 ± SEM.
Where [4] appears, read: in vitro, value ± standard error mean, read-out: BuChE Inhibition IC50 ± SEM.

T2 sequence (P06276 29-602): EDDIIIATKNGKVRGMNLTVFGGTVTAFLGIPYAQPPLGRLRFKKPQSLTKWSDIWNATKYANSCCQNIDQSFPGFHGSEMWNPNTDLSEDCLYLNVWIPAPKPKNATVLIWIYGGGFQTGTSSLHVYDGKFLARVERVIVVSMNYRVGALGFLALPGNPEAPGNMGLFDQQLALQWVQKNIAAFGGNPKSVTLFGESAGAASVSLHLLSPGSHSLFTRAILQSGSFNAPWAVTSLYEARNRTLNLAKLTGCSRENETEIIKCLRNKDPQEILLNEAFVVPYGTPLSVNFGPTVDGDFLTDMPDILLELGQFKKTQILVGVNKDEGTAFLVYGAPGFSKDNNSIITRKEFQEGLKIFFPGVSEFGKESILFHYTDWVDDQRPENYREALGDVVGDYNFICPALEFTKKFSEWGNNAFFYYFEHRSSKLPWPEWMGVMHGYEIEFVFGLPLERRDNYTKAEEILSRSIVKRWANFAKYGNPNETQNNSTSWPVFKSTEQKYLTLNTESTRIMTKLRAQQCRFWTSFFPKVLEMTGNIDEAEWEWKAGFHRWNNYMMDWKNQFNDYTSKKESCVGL
T1 sequence (P22303 32-614, species assumed): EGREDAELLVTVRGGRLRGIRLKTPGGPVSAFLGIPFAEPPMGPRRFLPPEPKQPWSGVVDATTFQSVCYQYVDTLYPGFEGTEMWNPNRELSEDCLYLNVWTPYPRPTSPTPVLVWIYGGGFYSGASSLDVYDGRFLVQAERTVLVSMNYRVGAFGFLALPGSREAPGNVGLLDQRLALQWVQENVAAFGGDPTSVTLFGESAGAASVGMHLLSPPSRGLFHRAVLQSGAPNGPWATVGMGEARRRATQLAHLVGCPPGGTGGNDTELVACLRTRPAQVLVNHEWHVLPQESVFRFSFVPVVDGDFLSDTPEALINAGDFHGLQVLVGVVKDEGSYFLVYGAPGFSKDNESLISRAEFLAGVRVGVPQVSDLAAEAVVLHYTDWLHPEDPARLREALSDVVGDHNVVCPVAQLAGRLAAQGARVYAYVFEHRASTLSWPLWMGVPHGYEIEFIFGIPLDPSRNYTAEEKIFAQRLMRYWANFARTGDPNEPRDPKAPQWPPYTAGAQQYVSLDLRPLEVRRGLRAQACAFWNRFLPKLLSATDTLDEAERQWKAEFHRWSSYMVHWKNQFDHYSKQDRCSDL

Regarding `O=[N+]([O-])c1ccc(/C(CSc2nc3ccccc3[nH]2)=N/C2=CC=C(Nc3ccc([N+](=O)[O-])cc3O)C2)cc1` [Compound 1, (Z)-2-((4-((2-((1H-benzo[d]imidazol-2-yl)thio)-1-(4-nitrophenyl)ethylidene)amino)cyclopenta-1,3-dien-1-yl)amino)-5-nitrophenol], the IC50 is 214 ± 11.6 µM in test [1] and 249 ± 10.9 µM in test [2].

On to `Cc1cc([N+](=O)[O-])ccc1/C(CSc1nc2ccccc2[nH]1)=N/C1=CC=C(Nc2ccc([N+](=O)[O-])cc2O)C1` [Compound 2, (Z)-2-((4-((2-((1H-benzo[d]imidazol-2-yl)thio)-1-(2-methyl-4-nitrophenyl)ethylidene)amino)cyclopenta-1,3-dien-1-yl)amino)-5-nitrophenol], for which the IC50 in test [1] stood at 199 ± 10.2 µM; in test [2] it was 204 ± 8.2 µM.

For the compound `O=[N+]([O-])c1ccc(NC2=CC=C(/N=C(\CSc3nc4ccccc4[nH]3)c3ccccc3[N+](=O)[O-])C2)c(O)c1` [Compound 3, (Z)-2-((4-((2-((1H-benzo[d]imidazol-2-yl)thio)-1-(2-nitrophenyl)ethylidene)amino)cyclopenta-1,3-dien-1-yl)amino)-5-nitrophenol], the values for the half-inhibitory concentration (IC50) in test [1] and in test [2] were 124 ± 10.2 µM and 131 ± 9.7 µM, respectively.

For `Cc1ccc(/C(CSc2nc3ccccc3[nH]2)=N/C2=CC=C(Nc3ccc([N+](=O)[O-])cc3O)C2)cc1` [Compound 4, (Z)-2-((4-((2-((1H-benzo[d]imidazol-2-yl)thio)-1-(p-tolyl)ethylidene)amino)cyclopenta-1,3-dien-1-yl)amino)-5-nitrophenol], the IC50 was found to be 274 ± 7.6 µM in test [1] (setting [3]) and 285 ± 8.2 µM in test [2] (setting [4]).

Consider `O=[N+]([O-])c1ccc(NC2=CC=C(/N=C(\CSc3nc4ccccc4[nH]3)c3ccc(Cl)c(Cl)c3)C2)c(O)c1` [Compound 5, (Z)-2-((4-((2-((1H-benzo[d]imidazol-2-yl)thio)-1-(3,4-dichlorophenyl)ethylidene)amino)cyclopenta-1,3-dien-1-yl)amino)-5-nitrophenol], for which the 50% inhibitory concentration (IC50) in test [1] (setting [3]) was determined as 169 ± 7.7 µM; in test [2] (setting [4]) it was 179 ± 6.7 µM.

Regarding `O=[N+]([O-])c1ccc(NC2=CC=C(/N=C(\CSc3nc4ccccc4[nH]3)c3ccc([N+](=O)[O-])cc3Br)C2)c(O)c1` [Compound 6, (Z)-2-((4-((2-((1H-benzo[d]imidazol-2-yl)thio)-1-(2-bromo-4-nitrophenyl)ethylidene)amino)cyclopenta-1,3-dien-1-yl)amino)-5-nitrophenol], the 50% inhibitory concentration (IC50) in test [1] came out at 226 ± 10.1 µM; in test [2] it was 274 ± 13.8 µM.

As for `O=[N+]([O-])c1ccc(NC2=CC=C(/N=C(\CSc3nc4ccccc4[nH]3)c3ccccc3Br)C2)c(O)c1` [Compound 7, (Z)-2-((4-((2-((1H-benzo[d]imidazol-2-yl)thio)-1-(2-bromophenyl)ethylidene)amino)cyclopenta-1,3-dien-1-yl)amino)-5-nitrophenol], the results for the 50% inhibitory concentration (IC50) in test [1] (setting [3]) and in test [2] (setting [4]) were 314 ± 12.8 µM and 326 ± 13.1 µM, respectively.

As to `Cc1ccccc1/C(CSc1nc2ccccc2[nH]1)=N/C1=CC=C(Nc2ccc([N+](=O)[O-])cc2O)C1` [Compound 8, (Z)-2-((4-((2-((1H-benzo[d]imidazol-2-yl)thio)-1-(o-tolyl)ethylidene)amino)cyclopenta-1,3-dien-1-yl)amino)-5-nitrophenol], the half-maximal inhibitory concentration (IC50) was 291 ± 12.6 µM in test [1] (setting [3]) and 304 ± 13.8 µM in test [2] (setting [4]).

As to `COc1ccc(/C(CSc2nc3ccccc3[nH]2)=N/C2=CC=C(Nc3cccc([N+](=O)[O-])c3)C2)cc1O` [Compound 9, (Z)-5-(2-((1H-benzo[d]imidazol-2-yl)thio)-1-((4-((3-nitrophenyl)amino)cyclopenta-1,3-dien-1-yl)imino)ethyl)-2-methoxyphenol], the concentration for half-maximal inhibition (IC50) is 174 ± 6.76 µM in test [1] (setting [3]) and 181 ± 8.5 µM in test [2] (setting [4]).

For `O=[N+]([O-])c1ccc(NC2=CC=C(/N=C(\CSc3nc4ccccc4[nH]3)c3ccccc3)C2)c(O)c1` [Compound 10, (Z)-2-((4-((2-((1H-benzo[d]imidazol-2-yl)thio)-1-phenylethylidene)amino)cyclopenta-1,3-dien-1-yl)amino)-5-nitrophenol], the results for the IC50 in test [1] (setting [3]) and in test [2] (setting [4]) were 343 ± 10.6 µM and 376 ± 12.8 µM, respectively.

For `O=[N+]([O-])c1ccc(/C(CSc2nc3ccccc3[nH]2)=N/C2=CC=C(Nc3cccc([N+](=O)[O-])c3)C2)cc1` [Compound 11, (Z)-N-(4-((2-((1H-benzo[d]imidazol-2-yl)thio)-1-(4-nitrophenyl)ethylidene)amino)cyclopenta-1,3-dien-1-yl)-3-nitroaniline], the IC50 is 268 ± 11.7 µM in test [1] and 274 ± 9.1 µM in test [2].

As to `Cc1ccc(/C(CSc2nc3ccccc3[nH]2)=N/C2=CC=C(Nc3cccc([N+](=O)[O-])c3)C2)cc1` [Compound 12, (Z)-N-(4-((2-((1H-benzo[d]imidazol-2-yl)thio)-1-(p-tolyl)ethylidene)amino)cyclopenta-1,3-dien-1-yl)-3-nitroaniline], the IC50 in test [1] (setting [3]) came out at 308 ± 8.8 µM; in test [2] (setting [4]), 318 ± 9.8 µM.

Take `Cc1cccc(/C(CSc2nc3ccccc3[nH]2)=N/C2=CC=C(Nc3cccc([N+](=O)[O-])c3)C2)c1` [Compound 13, (Z)-N-(4-((2-((1H-benzo[d]imidazol-2-yl)thio)-1-(m-tolyl)ethylidene)amino)cyclopenta-1,3-dien-1-yl)-3-nitroaniline]: the half-inhibitory concentration (IC50) in test [1] (setting [3]) amounted to 321 ± 13.5 µM; in test [2] (setting [4]), 354 ± 12.7 µM.

Consider `Cc1ccccc1/C(CSc1nc2ccccc2[nH]1)=N/C1=CC=C(Nc2cccc([N+](=O)[O-])c2)C1` [Compound 14, (Z)-N-(4-((2-((1H-benzo[d]imidazol-2-yl)thio)-1-(o-tolyl)ethylidene)amino)cyclopenta-1,3-dien-1-yl)-3-nitroaniline], for which the concentration for half-maximal inhibition (IC50) in test [1] (setting [3]) stood at 289 ± 11.5 µM; in test [2] (setting [4]), 311 ± 12.3 µM.

Consider `Cc1cc([N+](=O)[O-])ccc1/C(CSc1nc2ccccc2[nH]1)=N/C1=CC=C(Nc2cccc([N+](=O)[O-])c2)C1` [Compound 15, (Z)-N-(4-((2-((1H-benzo[d]imidazol-2-yl)thio)-1-(2-methyl-4-nitrophenyl)ethylidene)amino)cyclopenta-1,3-dien-1-yl)-3-nitroaniline], for which the IC50 in test [1] stood at 217 ± 8.28 µM; in test [2] it was 221 ± 8.7 µM.

As for `O=[N+]([O-])c1cccc(NC2=CC=C(/N=C(\CSc3nc4ccccc4[nH]3)c3ccccc3Br)C2)c1` [Compound 17, (Z)-N-(4-((2-((1H-benzo[d]imidazol-2-yl)thio)-1-(2-bromophenyl)ethylidene)amino)cyclopenta-1,3-dien-1-yl)-3-nitroaniline], the concentration for half-maximal inhibition (IC50) in test [1] (setting [3]) is 234 ± 10.1 µM; in test [2] (setting [4]) it was 269 ± 9.6 µM.

As to `O=[N+]([O-])c1cccc(NC2=CC=C(/N=C(\CSc3nc4ccccc4[nH]3)c3ccc([N+](=O)[O-])cc3Br)C2)c1` [Compound 18, (Z)-N-(4-((2-((1H-benzo[d]imidazol-2-yl)thio)-1-(2-bromo-4-nitrophenyl)ethylidene)amino)cyclopenta-1,3-dien-1-yl)-3-nitroaniline], the values for the IC50 in test [1] and in test [2] were 214 ± 8.2 µM and 247 ± 9.1 µM, respectively.
